Source: patent US5861387A, “Controlled release systems and low dose androgens” (Endorecherche Inc., priority 1995, dated 1999)

Assays:
bone resorption = settings: in vivo; cited from earlier work
bone [1] = settings: in vivo; cited from earlier work
bone [2] = settings: in vivo; cited from earlier work; remark: listed apart in the source
antibody 144A = test: MPA radioimmunoassay, specificity of antibody 144A; assay type: binding, rabbit
Excerpt: Antibody 144A was raised in rabbits against 17-hydroxyprogesterone-3-0-carboxymethyloxime-BSA. The labeled steroid used in the radioimmunoassay (RIA) was methyl-17α-hydroxyprogesterone acetate, 6α-[1,2-^3 H(N)]- obtained from NEN (CAT NO: NET 480) while the reference preparation was medroxyprogesterone acetate (MPA) obtained from Steraloids. The assay buffer used was 0.1% gelatin in 0.1M sodium phosphate, 0.15M sodium chloride, 0.1% sodium azide, pH 7.2. The extraction solvent mixture was ethyl ether-acetone (9:1, v:v) [EEA] while the LH-20 chromatography solvent mixture was iso-octane: toluene: methanol (90:5:5;v:v:v) [IOTH].
One ml of plasma was extracted twice with 5 ml of EEA. The extracts were evaporated to dryness with nitrogen and the remaining residue was dissolved in one ml of IOTH. The extracts were then subjected to LH-20 chromatography on […] columns (Coming CAT NO: 05 722A) filled with 2 g of LH-20 (Pharmacia). The gel was washed with 30 ml of IOTH before addition of one ml of sample and elution with IOTH. The first 6 ml were discarded. The following 10, 16.5 and 27.5 ml of eluent were fraction I (progesterone), II (MPA) and III (17-LH-progesterone), respectively. Fraction II was evaporated to dryness and reconstituted in 1.5 ml of assay buffer.
To each 12 x 75 mm borosilicate test tube was added: 0.2 ml containing 25,000 DPM of tritiated steroid, 0.5 ml of reference preparation ranging from 5 to 5000 pg/tube or 0.5 ml of extracted sample fraction II, 0.2 ml of antiserum 144A diluted 1/5000 or 0.2 ml of assay buffer to account for non specific binding. The tubes were then incubated overnight at 4° C. Then, 0.2 ml 2% charcoal Norit-A, 0.2% Dextran T-70 diluted in water was added. The tubes were then shaken gently and, after 10 min, they were centrifuged at 2000 x g for 10 min. The supernatant was mixed with 8 ml of Formula-989 (NEN: NEF-989) and the radioactivity was counted in a β-counter.

masculinizing activity = settings: low blood concentrations; cited from earlier work
bone [3] = settings: cited from earlier work
[4] = test system: hypocalcemic effect of calcitonin; settings: castrated rats; cited from earlier work

| SMILES | bone resorption (bone resorption) | bone mass (bone [1]) | bone resorption, osteoporotic women (bone [1]) | overall quantity of bone (bone [2]) | cross-reactivity with antibody 144A (antibody 144A) | masculinizing activity (masculinizing activity) | bone histomorphometry (bone [3]; hypogonadal males) | nitrogen, calcium and phosphate balance (bone [3]; in vivo) | osteoid surfaces and beam width (bone [3]; in vivo) | bone formation (bone [3]; men with primary hypogonadism) | hypocalcemic effect of calcitonin [4] |
| --- | --- | --- | --- | --- | --- | --- | --- | --- | --- | --- | --- |
| CCCCCCCCCC(=O)O[C@H]1CC[C@H]2[C@@H]3CCC4=CC(=O)CC[C@@H]4[C@H]3CC[C@]12C [nandrolone decanoate] | reduced bone resorption | increased bone mass | reduced bone resorption |  |  |  |  |  |  |  |  |
| C[C@]12CC[C@H]3[C@@H](CCC4=CC(=O)CC[C@@]43C)[C@@H]1CC[C@@H]2O [testosterone] |  |  |  | increases the overall quantity of bone | less than 0.1% | considerable masculinizing activity even at low blood concentrations | increases in relative osteoid volume, total osteoid surface, linear extend of bone formation and bone mineralization | positive nitrogen, calcium and phosphate balance | increase osteoid surfaces and beam width | increases bone formation | increases the hypocalcemic effect of calcitonin |
